Experimental data as given in ChEMBL document CHEMBL1201862, “PubChem BioAssay data set” (2004).
Calls of active or inactive are those of the source.

Assays:
Leucine aminopeptidase = target: T1, Leucine aminopeptidase (Plasmodium falciparum 3D7, UniProt Q8IL11); test: P. falciparum M17LAP inhibitors, primary screen, biochemical, fluorogenic H-Leu-NHMec substrate, 1536-well (AID 1619); type: functional
T1 sequence (Q8IL11 whole entry): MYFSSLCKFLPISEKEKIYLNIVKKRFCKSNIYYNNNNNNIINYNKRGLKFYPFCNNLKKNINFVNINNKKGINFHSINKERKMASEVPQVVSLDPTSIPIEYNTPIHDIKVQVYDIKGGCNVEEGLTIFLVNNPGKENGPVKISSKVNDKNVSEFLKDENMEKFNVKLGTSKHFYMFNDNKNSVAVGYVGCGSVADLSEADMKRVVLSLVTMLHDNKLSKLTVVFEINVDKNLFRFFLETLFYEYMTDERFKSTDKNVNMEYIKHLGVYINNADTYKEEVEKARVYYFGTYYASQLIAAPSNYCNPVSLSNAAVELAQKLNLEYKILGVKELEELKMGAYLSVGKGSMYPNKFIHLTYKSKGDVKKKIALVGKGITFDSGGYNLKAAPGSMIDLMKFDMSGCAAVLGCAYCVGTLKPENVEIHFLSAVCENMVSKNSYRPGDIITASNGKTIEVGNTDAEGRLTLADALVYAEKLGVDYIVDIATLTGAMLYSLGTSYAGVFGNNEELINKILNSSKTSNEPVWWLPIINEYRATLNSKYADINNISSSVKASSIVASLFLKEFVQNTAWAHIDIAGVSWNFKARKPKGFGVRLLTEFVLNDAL

[1] = reduction of Shn3 3'UTR-driven luciferase in osteoblasts – cell-based, Clone20 osteoblasts, firefly luciferase, cherry-picked, dose response (AID 624132); type: functional;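 further: firefly luciferase luminescence from reporter carrying the Shn3 3'UTR in osteoblasts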
[2] = blockers of HIV-1 ZM109 envelope-driven cell-cell fusion – HeLa effector, CEM target cells, luciferase, cherry-pick, dose response (AID 652058); type: functional, cell-based;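 further: luciferase signal from HIV-1 Env mediated cell-cell fusion of effector and target cells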
[3] = off-target signal loss in HeLa-CEM21 co-culture – HeLa F-luc CTL cells, cherry-picked, counter-screen for HIV-1 Env fusion inhibitor project, dose response (AID 652040); type: functional, cell-based;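 further: potency for signal decrease marking cytotoxic or nonspecific inhibition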
[4] = HIV-1 AD8 envelope cell-cell fusion blockers – cherry-pick, dose response (AID 652062); type: functional, cell-based;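 further: luciferase signal from cell-cell fusion driven by HIV-1 clade B AD8 Env; potency is for inhibitors of fusion seen as a drop in luminescence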
[5] = blockers of HIV-1 envelope-mediated cell-cell fusion – cherry-pick, dose response (AID 652057); type: functional, cell-based
[6] = target: Induced myeloid leukemia cell differentiation protein Mcl-1 (Homo sapiens, UniProt Q07820); type: functional
Cytochrome P450 1A2 = target: T2, Cytochrome P450 1A2 (Homo sapiens, UniProt P05177);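 further: PubChem cytochrome P450 panel assay, CYP1A2 panel member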
T2 sequence (P05177 whole entry): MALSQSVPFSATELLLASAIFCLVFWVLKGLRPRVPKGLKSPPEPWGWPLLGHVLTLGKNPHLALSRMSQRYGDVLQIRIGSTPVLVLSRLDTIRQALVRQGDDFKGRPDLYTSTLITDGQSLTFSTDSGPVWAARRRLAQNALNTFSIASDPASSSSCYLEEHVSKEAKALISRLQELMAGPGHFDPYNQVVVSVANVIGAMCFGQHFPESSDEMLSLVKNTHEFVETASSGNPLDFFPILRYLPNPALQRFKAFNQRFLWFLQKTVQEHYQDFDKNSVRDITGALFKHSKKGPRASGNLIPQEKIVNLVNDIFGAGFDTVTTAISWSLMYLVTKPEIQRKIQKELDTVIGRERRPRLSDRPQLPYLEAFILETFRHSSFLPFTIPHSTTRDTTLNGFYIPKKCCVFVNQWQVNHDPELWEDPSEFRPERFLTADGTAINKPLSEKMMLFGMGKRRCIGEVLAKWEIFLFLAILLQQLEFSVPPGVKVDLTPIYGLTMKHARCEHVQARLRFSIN

[7] = viability of HCT116 lacking mutant beta-catenin – cell-based, human colon tumor, dose response (AID 1045); type: functional;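 further: HCT116 colon tumor cells with beta catenin knocked out; cells exposed to compound for 60 hours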
[8] = viability of PTEN-deleted HCT116 cells – cell-based, HCT116 PTEN knockout, dose response (AID 1047); type: functional;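 further: HCT116 colon tumor cells with PTEN knocked out; cells exposed to compound for 60 hours before readout; potency for loss of cell viability measured by luminescence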
[9] = target: T3, Rac GTPase-activating protein 1 (Homo sapiens, UniProt Q9H0H5); test: blockers of MgcRacGAP-driven Rac1 GTP hydrolysis – biochemical, ADP Hunter fluorescence, primary and confirmatory, confirmation (AID 624330); type: functional
T3 sequence (Q9H0H5 whole entry): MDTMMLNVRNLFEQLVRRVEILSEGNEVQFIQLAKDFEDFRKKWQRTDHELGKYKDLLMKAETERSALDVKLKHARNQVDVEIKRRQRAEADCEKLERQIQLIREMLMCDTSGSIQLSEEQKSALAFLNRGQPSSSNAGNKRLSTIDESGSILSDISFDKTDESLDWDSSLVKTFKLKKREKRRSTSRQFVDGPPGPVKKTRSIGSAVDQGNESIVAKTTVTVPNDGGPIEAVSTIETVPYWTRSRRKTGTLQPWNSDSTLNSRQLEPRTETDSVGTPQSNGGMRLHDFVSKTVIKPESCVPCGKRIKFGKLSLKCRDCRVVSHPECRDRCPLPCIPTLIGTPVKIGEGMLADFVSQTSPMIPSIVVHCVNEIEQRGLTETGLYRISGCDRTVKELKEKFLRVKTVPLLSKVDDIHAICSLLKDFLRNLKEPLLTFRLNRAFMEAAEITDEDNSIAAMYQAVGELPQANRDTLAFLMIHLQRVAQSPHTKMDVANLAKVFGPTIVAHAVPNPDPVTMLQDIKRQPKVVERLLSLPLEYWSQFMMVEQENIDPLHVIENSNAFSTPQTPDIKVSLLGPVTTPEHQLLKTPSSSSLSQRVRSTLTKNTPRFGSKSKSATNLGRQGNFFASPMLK

Large T antigen = Large T antigen (Simian virus 40, UniProt P03070); type: functional, Betapolyomavirus macacae;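 further: Confirmatory-stage PubChem screen for compounds that inhibit SV40 T antigen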
Aminopeptidase N = target: T4, Aminopeptidase N (Plasmodium falciparum FcB1/Columbia, UniProt O96935); test: malaria alanyl aminopeptidase activity blockers – biochemical, fluorogenic H-Leu-NHMec substrate, 1536-well (AID 1445); parameters: species or system Plasmodium falciparum 3D7, 3D7
T4 sequence (O96935 whole entry): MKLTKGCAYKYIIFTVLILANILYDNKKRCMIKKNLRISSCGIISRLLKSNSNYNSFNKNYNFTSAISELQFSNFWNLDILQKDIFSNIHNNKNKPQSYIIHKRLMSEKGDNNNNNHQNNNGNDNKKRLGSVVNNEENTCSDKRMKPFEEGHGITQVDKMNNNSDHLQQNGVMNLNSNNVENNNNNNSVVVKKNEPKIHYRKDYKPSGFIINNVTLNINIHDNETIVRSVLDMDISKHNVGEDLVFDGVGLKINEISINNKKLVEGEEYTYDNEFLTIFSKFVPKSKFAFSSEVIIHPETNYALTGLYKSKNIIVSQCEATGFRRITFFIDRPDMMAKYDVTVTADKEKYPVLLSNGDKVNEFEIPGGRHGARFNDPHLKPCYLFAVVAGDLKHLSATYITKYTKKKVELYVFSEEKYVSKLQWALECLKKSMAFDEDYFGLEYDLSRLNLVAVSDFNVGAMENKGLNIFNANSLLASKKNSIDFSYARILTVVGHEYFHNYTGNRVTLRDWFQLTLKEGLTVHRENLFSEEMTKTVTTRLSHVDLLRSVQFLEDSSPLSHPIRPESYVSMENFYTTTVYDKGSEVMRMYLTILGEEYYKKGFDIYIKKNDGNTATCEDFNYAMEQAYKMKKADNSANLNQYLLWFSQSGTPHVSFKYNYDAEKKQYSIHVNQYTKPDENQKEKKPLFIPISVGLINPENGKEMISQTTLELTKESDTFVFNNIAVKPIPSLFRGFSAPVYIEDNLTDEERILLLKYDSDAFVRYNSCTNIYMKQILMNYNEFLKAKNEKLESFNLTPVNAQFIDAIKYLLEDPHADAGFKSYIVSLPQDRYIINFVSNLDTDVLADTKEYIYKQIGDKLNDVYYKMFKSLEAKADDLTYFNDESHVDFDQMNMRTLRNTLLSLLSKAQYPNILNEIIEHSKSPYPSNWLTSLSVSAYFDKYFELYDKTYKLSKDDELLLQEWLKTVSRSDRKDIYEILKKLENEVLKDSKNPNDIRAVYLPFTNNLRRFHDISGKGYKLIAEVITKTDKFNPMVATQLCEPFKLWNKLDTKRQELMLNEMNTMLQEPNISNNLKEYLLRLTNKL

[10] = Luminescence Cell-Based Dose Retest to Confirm Inhibitors of Cancer Stem Cells. [Related pubchem assays (depositor defined):AID2717, AID2721]; type: functional; conditions: Homo sapiens
Nonstructural protein 1 = Nonstructural protein 1 (Influenza A virus, UniProt Q194T2); type: functional, Influenza A virus (A/California/07/2009(H1N1))
[11] = viability of uninfected HEp-2 cells – cell-based, HTS, cytotoxicity control for RSV inhibitor project, dose response (AID 2410); type: functional; conditions: human respiratory syncytial virus
INS1 = test: INS-1E survival protection against cytokine death – cell-based, luminescence, retest, dose response (AID 449756); type: functional; conditions: Rattus norvegicus;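 further: cell death triggered by IL-1 beta plus TNF-alpha plus IFN-gamma mixture; protective hits raise ATP signal compared with cytokine alone wells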

Induced myeloid leukemia cell differentiation protein Mcl-1, sequence (Q07820 whole entry): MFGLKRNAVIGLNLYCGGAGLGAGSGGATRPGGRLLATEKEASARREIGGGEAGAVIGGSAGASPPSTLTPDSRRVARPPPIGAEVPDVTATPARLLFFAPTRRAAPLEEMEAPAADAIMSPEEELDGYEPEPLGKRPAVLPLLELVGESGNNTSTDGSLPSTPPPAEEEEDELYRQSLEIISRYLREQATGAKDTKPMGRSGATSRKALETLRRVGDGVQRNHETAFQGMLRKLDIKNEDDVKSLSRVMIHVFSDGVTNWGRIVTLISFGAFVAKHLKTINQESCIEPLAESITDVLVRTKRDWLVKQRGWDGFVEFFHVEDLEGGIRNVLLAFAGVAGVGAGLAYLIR
Large T antigen, sequence (P03070 whole entry): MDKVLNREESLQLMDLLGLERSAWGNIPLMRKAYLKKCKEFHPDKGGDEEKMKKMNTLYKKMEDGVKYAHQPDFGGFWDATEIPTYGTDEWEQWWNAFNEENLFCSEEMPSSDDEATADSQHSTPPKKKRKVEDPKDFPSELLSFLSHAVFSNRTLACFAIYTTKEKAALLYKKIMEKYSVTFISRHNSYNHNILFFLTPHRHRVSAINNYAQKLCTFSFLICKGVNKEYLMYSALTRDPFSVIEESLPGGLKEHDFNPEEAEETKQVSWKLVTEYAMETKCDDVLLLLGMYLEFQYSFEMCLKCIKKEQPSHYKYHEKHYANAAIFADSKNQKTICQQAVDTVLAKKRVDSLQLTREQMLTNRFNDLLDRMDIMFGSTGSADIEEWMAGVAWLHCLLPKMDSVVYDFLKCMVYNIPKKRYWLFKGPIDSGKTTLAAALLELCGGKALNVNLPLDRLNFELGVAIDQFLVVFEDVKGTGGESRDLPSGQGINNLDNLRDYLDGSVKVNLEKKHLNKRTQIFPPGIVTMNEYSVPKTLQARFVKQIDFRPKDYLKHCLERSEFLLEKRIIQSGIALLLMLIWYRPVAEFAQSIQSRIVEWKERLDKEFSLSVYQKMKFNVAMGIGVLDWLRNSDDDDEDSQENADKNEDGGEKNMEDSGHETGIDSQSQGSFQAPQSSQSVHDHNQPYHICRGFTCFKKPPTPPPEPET
Nonstructural protein 1, sequence (Q194T2 whole entry): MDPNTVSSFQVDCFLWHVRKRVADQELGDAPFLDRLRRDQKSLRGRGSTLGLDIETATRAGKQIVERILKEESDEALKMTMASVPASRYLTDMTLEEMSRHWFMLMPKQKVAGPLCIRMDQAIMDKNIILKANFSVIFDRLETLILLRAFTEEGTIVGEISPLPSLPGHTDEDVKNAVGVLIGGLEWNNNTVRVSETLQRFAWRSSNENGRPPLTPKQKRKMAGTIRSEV

Q: With `Cc1cc(C=C2C(=O)c3ccccc3C2=O)c(C)n1-c1cccc(C(=O)O)c1` as the molecule, how does the IC50 (Leucine aminopeptidase) read?
A: 18.6 µM (active)

Q: For `CCCCN1CC(COCc2ccccc2)Oc2cccc(Oc3ccc(C)cc3)c2S1(=O)=O` (stereo not given), which AC50 [1] is on record?
A: 10.7 µM (active)

Q: Which results are given for `CC12CC3CC(C)(C1)CC(C(=O)NCc1ccncc1)(C3)C2`?
A: AC50 [2]: 4.58 µM (active); AC50 [3]: 13.5 µM (active); AC50 [4]: 22.4 µM (active); AC50 [5]: 7.75 µM (active)

Q: For `FC(F)(F)C1=CC(c2ccccc2)=NCCN1`, which IC50 [6] is on record?
A: 9.33 µM (not active)

Q: For `CC1CCC2(CC1)NC(=O)N(CC(=O)Nc1ccc3c(c1)OCCO3)C2=O` (stereo not given), which IC50 (Leucine aminopeptidase) is on record?
A: 13.8 µM (active)

Q: Which AC50 (Cytochrome P450 1A2) does the source give for `CCC(=O)c1ccc(OCC(O)CN(CCc2ccccc2)Cc2ccccc2)cc1` (stereo not given) here?
A: 20 µM (inconclusive)

Q: What about the EC50 [7] of the same molecule?
A: 83.6 µM (active)

Q: And the EC50 [8]?
A: 49.2 µM (active)

Q: What does the source list for `CCOc1cc(/C=N/NC(=O)CCc2nnc(O)nc2O)ccc1O`?
A: IC50 [9]: 59.5 µM (active); IC50 (Large T antigen): 32.7 µM (active)

Q: Which IC50 (Large T antigen) does the source give for `CN(C)c1ccc(NC(=O)CCN2CCN(c3ccccn3)CC2)cc1` here?
A: 6.73 µM (active)

Q: Which IC50 (Aminopeptidase N) does the source give for `CCc1cc(=O)oc2c(C)c(O)c(CN3CCCCC3)cc12` here?
A: 39.9 µM (active)

Q: What does the source list for `COc1ccc(/C=C/C(O)=C2\C(=O)NC(=O)N(CCC3=CCCCC3)C2=O)cc1`?
A: EC50 [7]: 14.4 µM (active); EC50 [8]: 13.7 µM (active); AC50 [10]: 2.71 µM (active)

Q: For `Oc1ccc(-c2nc3ncccn3c2Nc2ccc3c(c2)OCO3)cc1`, which IC50 (Large T antigen) is on record?
A: 15.6 µM (active)

Q: For `O=c1[nH]c2ccc(Cl)cc2c(-c2ccccc2)c1CN1CCOCC1`, which IC50 (Aminopeptidase N) is on record?
A: 81.5 µM (active)

Q: With `O=C(CSc1ncccc1C(=O)O)NCc1ccc(F)cc1` as the molecule, how does the IC50 (Leucine aminopeptidase) read?
A: 42.7 µM (active)

Q: Which IC50 (Nonstructural protein 1) does the source give for `CC(NC(=O)c1ccco1)C(=O)Nc1nc(-c2ccccn2)cs1` (stereo not given) here?
A: 9.55 µM (active)

Q: Which results are given for `C=CCOc1ccccc1CNc1ccc2[nH]c(O)nc2c1`?
A: CC50 [11]: 21.8 µM (active); IC50 (Large T antigen): 19 µM (active)

Q: For `NC(CC(=O)O)c1ccc(Br)cc1` (stereo not given), which IC50 (Aminopeptidase N) is on record?
A: 69.2 µM (active)

Q: For `COc1ccc(C2NCCc3c2[nH]c2ccccc32)cc1CSc1nc2ccccc2s1` (stereo not given), which EC50 [7] is on record?
A: 10.1 µM (active)

Q: And the EC50 [8]?
A: 12.1 µM (active)

Q: What about the AC50 [10] of the same molecule?
A: 3.13 µM (active)

Q: Which IC50 (Large T antigen) does the source give for `Cc1nnc(SCC(=O)Nc2ccc(N(C)C)cc2)n(N)c1=O` here?
A: 11.6 µM (active)

Q: For `COc1nccnc1NS(=O)(=O)c1ccc(/N=C/c2c(C)nn(-c3ccc(C)c(C)c3)c2O)cc1`, which IC50 (Leucine aminopeptidase) is on record?
A: 19.3 µM (active)

Q: For `O=C(Nc1nc2ccccc2[nH]1)c1ccc(Cl)c([N+](=O)[O-])c1`, which IC50 [6] is on record?
A: 6.46 µM (active)

Q: For `CC(C)S(=O)(=O)C1=NSC2=NC(=O)/C(=C\c3c[nH]c4ccccc34)C(=N)N21`, which IC50 (Aminopeptidase N) is on record?
A: 37.3 µM (active)

Q: For `COc1ccc(C(C(=O)NC2CCCC2)N(C(=O)c2ccoc2C)c2ccc(C)cc2)cc1` (stereo not given), which AC50 [2] is on record?
A: 3.47 µM (active)

Q: And the AC50 [3]?
A: 8.48 µM (active)

Q: What about the AC50 [4] of the same molecule?
A: 11.7 µM (active)

Q: And the AC50 [5]?
A: 5.46 µM (active)

Q: For `CCOc1ccc(C2C3=C(O)c4ccccc4C3=Nc3nc(N)nc(O)c32)cc1` (stereo not given), which IC50 [6] is on record?
A: > 54 µM (active)

Q: Which IC50 (Aminopeptidase N) does the source give for `CCCCc1nc2sc3c(c2c(=O)n1NC(=O)c1ccco1)CC(C)(C)OC3` here?
A: 42.8 µM (active)

Q: For `Cc1ccccc1NC(=S)N/N=C/c1ccc(O)cc1O`, which IC50 (Nonstructural protein 1) is on record?
A: 11.2 µM (active)

Q: What about the AC50 (INS1) of the same molecule?
A: 2.54 µM (active)
